For three compounds, Kd results are on record in paper PMC5445127 (Frontiers in Plant Science, 2017).

Structures are written as SMILES.

Experiment [1] concerns the target T1, ZmSIRK1 (ZmSIRK1^737-1045) (Zea mays, UniProt K7VIQ3).
T1 construct: gene ZEAMMB73_Zm00001d047570; kinase domain Ser737-Ser1045 (full length 1045 aa; KD 762-1040), E. coli BL21(DE3)-R3-pRARE2, pNIC28a-Bsa4, 6xHis tag removed by TEV; forward primer encodes S737-V-V-F-T-A-E (translated); motifs 907DYS909, 933PPE935; model residues 744-972, 977-1000, 1009-1045
Put plainly: isothermal titration calorimetry; co-crystal structure. The format is binding. A general note: In ITC the heat of successive injections is recorded.

In experiment [2] the target is T1, ZmSIRK1 (ZmSIRK1^737-1045). Briefly: isothermal titration calorimetry. The experiment is classed as binding.

T1 sequence (K7VIQ3 entry or part of it): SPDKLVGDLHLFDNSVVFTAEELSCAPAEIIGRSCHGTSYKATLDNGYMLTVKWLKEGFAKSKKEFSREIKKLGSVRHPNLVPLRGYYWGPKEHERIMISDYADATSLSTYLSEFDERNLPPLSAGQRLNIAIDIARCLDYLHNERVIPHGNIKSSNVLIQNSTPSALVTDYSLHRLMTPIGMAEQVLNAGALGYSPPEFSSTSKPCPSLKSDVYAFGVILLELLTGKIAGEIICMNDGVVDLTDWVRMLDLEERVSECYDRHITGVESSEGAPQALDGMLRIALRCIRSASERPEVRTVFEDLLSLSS

Consider `Nc1ncnc2c1ncn2[C@@H]1O[C@H](COP(=O)(O)OP(=O)(O)NP(=O)(O)O)[C@@H](O)[C@H]1O` [AMP-PNP], for which the Kd in experiment [1] was determined as 2800 nM.
In the case of `CC(C)n1nc(-c2ccc3oc(N)nc3c2)c2c(N)ncnc21` [INK 128], in experiment [2], binding was characterised by a dissociation constant (Kd) of 1760 nM.
`Nc1ncnc2c1c(-c1cnc3[nH]ccc3c1)nn2C1CCCC1` [PP121] returned a Kd in experiment [2] of 1990 nM. This Kd and that of the compound before are within 1.5-fold of each other.

The term Kd denotes the concentration at which binding is half-saturated.
